For test [1], the target named is human Fatty Acid Amide Hydrolase (FAAH) (Homo sapiens (Human), UniProt O00519). Description: biochemical. The settings on record: for IC50: read-out: hFAAH IC50.
Experimental: Material and Reagents: All reagents were purchased from Sigma-Aldrich unless specified. […] Chaperone protein groEL-groES in pGRO7 plasmid (Takara Bio Inc, Japan) was co-expressed with Fatty Acid Amide Hydrolase (FAAH) to improve solubility of the protein expressed in E coli. […] Briefly, the bacterial cultures in Luria Broth (2 L) were induced with arabinose (2 mM) and Isopropyl (β-D-1-thiogalactopyranoside, IPTG (1 mM), for 20 h at room temperature. The cultures were centrifuged at 1200×g for 10 min and the cell pellet was resuspended in 100 mL buffer containing of 20 mM NaPi (pH 7.4), 100 mM NaCl, Benzonase (500u), Aprotinin (1 μg/mL) and Leupeptin (1 μg/mL). Cells were lyzed by sonication (Amp 20%, Pulse 15 s×15, on ice) and the cell debris removed by centrifugation at 5000×g for 20 min. The supernatant was enriched via ultracentrifugation at 100,000×g for 1 h and the cell pellet was resuspended in 16 mL buffer containing 20 mM NaPi (pH 7.8), 500 mM NaCl, 1% Triton X-100. The resuspended cell extract was subjected to ultra-centrifugation at 100,000×g for 1 h and the enriched supernatant was used in the in vitro assay. All protein extraction steps were carried out on ice or at 4° C.
The assay was carried out in 200 μL volume in a 96-well black polystyrene plate (Greiner Bio-one, Germany). Each reaction consisted of human Fatty Acid Amide Hydrolase (FAAH) protein and 10 μM AAMCA in assay buffer containing 50 mM HEPES, 1 mM EDTA and 0.1% BSA, pH 7.4. The reaction was incubated with 2 μL of varying concentrations of inhibitor in DMSO (final concentration of DMSO 1%) with shaking for 1 min and monitored for increase in fluorescence in kinetic mode for 50 min. […] Rate of reaction as a function of the concentration of the inhibitor was used to determine the IC50 of the inhibitors. Data was analyzed using GraphPad Prism 5 (GraphPad Software Inc., San Diego, Calif.).
In test [2] the target is rat Fatty Acid Amide Hydrolase (FAAH) (Rattus norvegicus (Rat), UniProt P97612). The test is described as follows: FAAH in vitro fluorescence assay (AAMCA hydrolysis), rat enzyme. In kind it is biochemical. The note with it: rat FAAH; for IC50: read-out: rFAAH IC50; for inhibition at 0.1 µM: read-out: rFAAH % inhibition at 100 nM, 100 nM (tier I). The procedure, abridged:
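Rat FAAH, E. coli-expressed with groEL-groES chaperone, used as enriched membrane extract with 10 μM AAMCA in 50 mM HEPES, 1 mM EDTA, 0.1% BSA, pH 7.4 (1% DMSO final).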

Where two headings read alike, the source gives them in different places.

Sequence of human Fatty Acid Amide Hydrolase (FAAH) (O00519 30-579): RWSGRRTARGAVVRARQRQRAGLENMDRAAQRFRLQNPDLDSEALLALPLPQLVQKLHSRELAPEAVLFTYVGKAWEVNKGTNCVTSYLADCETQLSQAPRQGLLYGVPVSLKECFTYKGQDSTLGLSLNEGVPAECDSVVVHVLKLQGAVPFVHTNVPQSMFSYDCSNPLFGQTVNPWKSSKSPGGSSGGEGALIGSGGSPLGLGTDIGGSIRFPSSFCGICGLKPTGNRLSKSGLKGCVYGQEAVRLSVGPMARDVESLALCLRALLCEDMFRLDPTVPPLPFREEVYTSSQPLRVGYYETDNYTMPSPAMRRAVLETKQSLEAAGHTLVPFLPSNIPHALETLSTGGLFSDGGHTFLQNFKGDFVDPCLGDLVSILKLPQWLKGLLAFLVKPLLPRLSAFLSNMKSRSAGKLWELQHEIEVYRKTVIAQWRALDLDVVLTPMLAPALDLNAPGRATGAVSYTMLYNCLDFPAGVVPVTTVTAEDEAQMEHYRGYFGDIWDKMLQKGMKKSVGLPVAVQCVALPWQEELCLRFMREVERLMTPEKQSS
Sequence of rat Fatty Acid Amide Hydrolase (FAAH) (P97612 30-579): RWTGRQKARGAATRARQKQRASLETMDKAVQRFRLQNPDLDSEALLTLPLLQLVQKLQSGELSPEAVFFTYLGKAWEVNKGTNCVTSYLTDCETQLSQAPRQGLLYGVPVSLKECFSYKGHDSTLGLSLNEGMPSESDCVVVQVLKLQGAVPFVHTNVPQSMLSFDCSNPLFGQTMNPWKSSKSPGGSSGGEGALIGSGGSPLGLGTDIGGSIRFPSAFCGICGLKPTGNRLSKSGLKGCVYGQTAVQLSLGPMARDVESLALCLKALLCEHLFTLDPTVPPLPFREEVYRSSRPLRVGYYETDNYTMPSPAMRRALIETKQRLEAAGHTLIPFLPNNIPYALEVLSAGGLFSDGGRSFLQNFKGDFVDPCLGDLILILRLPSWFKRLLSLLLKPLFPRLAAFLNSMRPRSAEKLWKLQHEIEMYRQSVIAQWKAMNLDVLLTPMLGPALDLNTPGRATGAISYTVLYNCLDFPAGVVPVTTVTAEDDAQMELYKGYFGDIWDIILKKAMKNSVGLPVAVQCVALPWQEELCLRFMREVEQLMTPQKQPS

As for `O=C(NC1CCC(=Cc2cccc(Oc3ccc(C(F)(F)F)cn3)c2)CC1)c1ccc(C2CC2)nc1` (stereo not shown) [Example 2.A-42, 6-Cyclopropyl-N-[4-[[3-[[5-(trifluoromethyl)-2-pyridyl]oxy]phenyl]methylene]cyclohexyl]pyridine-3-carboxamide], the 50% inhibitory concentration (IC50) (commonly the concentration at which inhibition is half-maximal) is 0.013 µM in test [1] (human FAAH) and 0.014 µM in test [2].
The corresponding values for `CCc1ccc(C(=O)NC2CCC(=Cc3cccc(Oc4ccc(C(F)(F)F)cn4)c3)CC2)cn1` (stereo not shown) [Example 2.A-43, 6-Ethyl-N-[4-[[3-[[5-(trifluoromethyl)-2-pyridyl]oxy]phenyl]methylene]cyclohexyl]pyridine-3-carboxamide] are 0.004 µM and 0.018 µM.
For `O=C(NC1CCC(=Cc2cccc(Oc3ccc(C(F)(F)F)cn3)c2)CC1)c1ccc(-c2cc[nH]n2)nc1` (stereo not shown) [Example 2.B-4, 6-(1H-Pyrazol-3-yl)-N-[4-[[3-[[5-(trifluoromethyl)-2-pyridyl]oxy]phenyl]methylene]cyclohexyl]pyridine-3-carboxamide], in that order: 0.002 µM and 0.011 µM.
Turning to `O=C(NC1CCC(=Cc2cccc(Oc3ccc(C(F)(F)F)cn3)c2)CC1)c1ccc(-c2cn[nH]c2)nc1` (stereo not shown) [Example 2.B-5, 6-(1H-Pyrazol-4-yl)-N-[4-[[3-[[5-(trifluoromethyl)-2-pyridyl]oxy]phenyl]methylene]cyclohexyl]pyridine-3-carboxamide], the IC50 was 0.002 µM in test [1] (human FAAH) and 0.009 µM in test [2].
For `Cc1cnn(-c2ccc(C(=O)NC3CCC(=Cc4cccc(Oc5ccc(C(F)(F)F)cn5)c4)CC3)cn2)c1` (stereo not shown) [Example 2.B-6, 6-(4-Methylpyrazol-1-yl)-N-[4-[[3-[[5-(trifluoromethyl)-2-pyridyl]oxy]phenyl]methylene]cyclohexyl]pyridine-3-carboxamide], in that order: 0.007 µM and 0.021 µM.
On to `O=C(NC1CCC(=Cc2cccc(Oc3ccc(C(F)(F)F)cn3)c2)CC1)c1cncc(-n2cccn2)c1` (stereo not shown) [Example 2.B-7, 5-Pyrazol-1-yl-N-[4-[[3-[[5-(trifluoromethyl)-2-pyridyl]oxy]phenyl]methylene]cyclohexyl]pyridine-3-carboxamide], for which the IC50 in test [1] (human FAAH) came out at 0.006 µM; in test [2] it was 0.085 µM.
For the compound `O=C(NC1CCC(=Cc2cccc(Oc3ccc(C(F)(F)F)cn3)c2)CC1)c1ccc(-n2cc(Cl)cn2)nc1` (stereo not shown) [Example 2.B-8, 6-(4-Chloropyrazol-1-yl)-N-[4-[[3-[[5-(trifluoromethyl)-2-pyridyl]oxy]phenyl]methylene]cyclohexyl]pyridine-3-carboxamide], the concentration for half-maximal inhibition (IC50) was determined as 0.005 µM in test [1] (human FAAH) and 0.021 µM in test [2].
For `Cc1ccn(-c2ccc(C(=O)NC3CCC(=Cc4cccc(Oc5ccc(C(F)(F)F)cn5)c4)CC3)cn2)n1` (stereo not shown) [Example 2.B-9, 6-(3 -Methylpyrazol-1-yl)-N-[4-[[3-[[5-(trifluoromethyl)-2-pyridyl]oxy]phenyl]methylene]cyclohexyl]pyridine-3-carboxamide], in that order: 0.009 µM and 0.022 µM.
The corresponding values for `Cc1n[nH]c(C)c1-c1ccc(C(=O)NC2CCC(=Cc3cccc(Oc4ccc(C(F)(F)F)cn4)c3)CC2)cn1` (stereo not shown) [Example 2.B-11, 6-(3,5-Dimethyl-1H-pyrazol-4-yl)-N-[4-[[3-[[5-(trifluoromethyl)-2-pyridyl]oxy]phenyl]methylene]cyclohexyl]pyridine-3-carboxamide] are 0.017 µM and 0.052 µM.
Consider `O=C(NC1CCC(=Cc2cccc(Oc3ccc(C(F)(F)F)cn3)c2)CC1)c1ccc(-n2cnnc2)nc1` (stereo not shown) [Example 2.B-13, 6-(1,2,4-Triazol-4-yl)-N-[4-[[3-[[5-(trifluoromethyl)-2-pyridyl]oxy]phenyl]methylene]cyclohexyl]pyridine-3-carboxamide], for which the figures for the IC50 in test [1] and in test [2] were 0.002 µM and 0.014 µM, respectively.
For `O=C(NC1CCC(=Cc2cccc(Oc3ccc(C(F)(F)F)cn3)c2)CC1)c1ccc(-n2ccnn2)nc1` (stereo not shown) [Example 2.B-14, 6-(Triazol-1-yl)-N-[4-[[3-[[5-(trifluoromethyl)-2-pyridyl]oxy]phenyl]methylene]cyclohexyl]pyridine-3-carboxamide], in that order: 0.002 µM and 0.011 µM.
As for `O=C(NC1CCC(=Cc2cccc(Oc3ccc(C(F)(F)F)cn3)c2)CC1)c1ccc(-n2nccn2)nc1` (stereo not shown) [Example 2.B-15, 6-(Triazol-2-yl)-N-[4-[[3-[[5-(trifluoromethyl)-2-pyridyl]oxy]phenyl]methylene]cyclohexyl]pyridine-3-carboxamide], the IC50 came out at 0.003 µM in test [1] (human FAAH) and 0.009 µM in test [2].
`Nc1ccc(C(=O)NC2CCC(=Cc3cccc(Oc4ccc(C(F)(F)F)cn4)c3)CC2)cn1` (stereo not shown) [Example 2.C-1, 6-Amino-N-[4-[[3-[[5-(trifluoromethyl)-2-pyridyl]oxy]phenyl]methylene]cyclohexyl]pyridine-3-carboxamide]: the IC50 in test [1] is 0.005 µM; in test [2], 0.031 µM.
For `COc1ccc(C(=O)NC2CCC(=Cc3cccc(Oc4ccc(C(F)(F)F)cn4)c3)CC2)cn1` (stereo not shown) [Example 2.C-2, 6-Methoxy-N-[4-[[3-[[5-(trifluoromethyl)-2-pyridyl]oxy]phenyl]methylene]cyclohexyl]pyridine-3-carboxamide], in that order: 0.005 µM and 0.021 µM.
Take `O=C(NC1CCC(=Cc2cccc(Oc3ccc(C(F)(F)F)cn3)c2)CC1)c1cncc(O)c1` (stereo not shown) [Example 2.C-4, 5-Hydroxy-N-[4-[[3-[[5-(trifluoromethyl)-2-pyridyl]oxy]phenyl]methylene]cyclohexyl]pyridine-3-carboxamide]: the IC50 stood at 0.004 µM in test [1] (human FAAH) and 0.021 µM in test [2].
For `Nc1ncc(C(=O)NC2CCC(=Cc3cccc(Oc4ccc(C(F)(F)F)cn4)c3)CC2)cn1` (stereo not shown) [Example 2.C-6, 2-Amino-N-[4-[[3-[[5-(trifluoromethyl)-2-pyridyl]oxy]phenyl]methylene]cyclohexyl]pyrimidine-5-carboxamide], the half-maximal inhibitory concentration (IC50) in test [1] was found to be 0.001 µM; in test [2], 0.016 µM.
For `O=C(NC1CCC(=Cc2cccc(Oc3ccc(C(F)(F)F)cn3)c2)CC1)c1cnc2[nH]ccc2c1` [Example 2.D-5, N-[4-[[3-[[5-(Trifluoromethyl)-2-pyridyl]oxy]phenyl]methylene]cyclohexyl]-1H-pyrrolo[2,3-b]pyridine-5-carboxamide], in that order: 0.002 µM and 0.016 µM.
The corresponding values for `O=C(NC1CCC(=Cc2cccc(Oc3ccc(C(F)(F)F)cn3)c2)CC1)c1c[nH]c2ccccc12` [Example 2.D-6, N-[4-[[3-[[5-(Trifluoromethyl)-2-pyridyl]oxy]phenyl]methylene]cyclohexyl]-1H-indole-3-carboxamide] are 0.01 µM and 0.087 µM.
Turning to `Cc1nc(Oc2cccc(C=C3CCC(NC(=O)c4ccc(N)nc4)CC3)c2)ccc1Cl` (stereo not shown) [Example 2.E-16, 6-Amino-N-[4-[[3-[(5-chloro-6-methyl-2-pyridyl)oxy]phenyl]methylene]cyclohexyl]pyridine-3-carboxamide], the IC50 was 0.003 µM in test [1] (human FAAH) and 0.024 µM in test [2].
In the case of `Cc1nc(Oc2cccc(C=C3CCC(NC(=O)c4ccc(N)nc4)CC3)c2)ccc1C(F)(F)F` (stereo not shown) [Example 2.E-17, 6-Amino-N-[4-[[3-[[6-methyl-5-(trifluoromethyl)-2-pyridyl]oxy]phenyl]methylene]cyclohexyl]pyridine-3-carboxamide], the IC50 amounted to 0.003 µM in test [1] and 0.027 µM in test [2].
Turning to `Cc1nc(Oc2cccc(C=C3CCC(NC(=O)c4c[nH]nc4C(F)(F)F)CC3)c2)ccc1C(F)(F)F` (stereo not shown) [Example 2.E-18, N-[4-[[3-[[6-Methyl-5-(trifluoromethyl)-2-pyridyl]oxy]phenyl]methylene]cyclohexyl]-3-(trifluoromethyl)-1H-pyrazole-4-carboxamide], the IC50 in test [1] (human FAAH) was 0.013 µM. For the same compound, the inhibition (usually the change of the read-out against control, counted positive when it falls) at 0.1 µM in test [2] is 55%.
For the compound `Nc1ccc(C(=O)NC2CCC(=Cc3cccc(Oc4ccc(C(F)(F)F)c(C5CC5)n4)c3)CC2)cn1` (stereo not shown) [Example 2.E-19, 6-Amino-N-[4-[[3-[[6-cyclopropyl-5-(trifluoromethyl)-2-pyridyl]oxy]phenyl]methylene]cyclohexyl]pyridine-3-carboxamide], the inhibition at 0.1 µM was determined as 40% in test [1] (read-out: hFAAH % inhibition at 100 nM, human FAAH, 100 nM (tier I)) and 40% in test [2].
On to `Nc1ccc(C(=O)NC2CCC(=Cc3cccc(Oc4ccc(C(F)(F)F)c(Cl)n4)c3)CC2)cn1` (stereo not shown) [Example 2.E-20, 6-Amino-N-[4-[[3-[[6-chloro-5-(trifluoromethyl)-2-pyridyl]oxy]phenyl]methylene]cyclohexyl]pyridine-3-carboxamide], for which the values for the half-inhibitory concentration (IC50) in test [1] (human FAAH) and in test [2] were 0.003 µM and 0.071 µM, respectively.
The corresponding values for `Cc1nc(Oc2cccc(C=C3CCC(NC(=O)c4cnc(N)nc4)CC3)c2)ccc1C(F)(F)F` (stereo not shown) [Example 2.E-22, 2-Amino-N-[4-[[3-[[6-methyl-5-(trifluoromethyl)-2-pyridyl]oxy]phenyl]methylene]cyclohexyl]pyrimidine-5-carboxamide] are 0.002 µM and 0.021 µM.
On to `Cc1cc(C(=O)NC2CCC(=Cc3cccc(Oc4ccc(C(F)(F)F)c(C)n4)c3)CC2)cnc1N` (stereo not shown) [Example 2.E-23, 6-Amino-5-methyl-N-[4-[[3-[[6-methyl-5-(trifluoromethyl)-2-pyridyl]oxy]phenyl]methylene]cyclohexyl]pyridine-3-carboxamide], for which the results for the IC50 in test [1] (human FAAH) and in test [2] were 0.012 µM and 0.065 µM, respectively.
For `CCc1nc(Oc2cccc(C=C3CCC(NC(=O)c4ccc(N)nc4)CC3)c2)ccc1C(F)(F)F` (stereo not shown) [Example 2.E-24, 6-Amino-N-[4-[[3-[[6-ethyl-5-(trifluoromethyl)-2-pyridyl]oxy]phenyl]methylene]cyclohexyl]pyridine-3-carboxamide], the IC50 in test [1] (human FAAH) is 0.034 µM. Moreover, in test [2], the inhibition at 0.1 µM was 47%.

Source of the values: patent US9682953B2, “Amide compounds, compositions and applications thereof” (Advinus Therapeutics Limited, priority 2011, dated 2017).
